Laboratory results taken from patent US11236055B2 (Venenum Biodesign, LLC, priority 2016, dated 2022).

Columns and labels:
human TGR5 receptor = target: T1, human TGR5 receptor (Homo sapiens, UniProt Q8TDU6); test: Human TGR5 cAMP production assay; format: cell-based; settings: human TGR5, luminescent cAMP assay; coded A-D; read-out: Human TGR5 Lum. cAMP Activity (EC50)
T1 construct: host or cells: CHO-K1 (hTGR5-CHO cells)
T1 sequence (Q8TDU6 1-330): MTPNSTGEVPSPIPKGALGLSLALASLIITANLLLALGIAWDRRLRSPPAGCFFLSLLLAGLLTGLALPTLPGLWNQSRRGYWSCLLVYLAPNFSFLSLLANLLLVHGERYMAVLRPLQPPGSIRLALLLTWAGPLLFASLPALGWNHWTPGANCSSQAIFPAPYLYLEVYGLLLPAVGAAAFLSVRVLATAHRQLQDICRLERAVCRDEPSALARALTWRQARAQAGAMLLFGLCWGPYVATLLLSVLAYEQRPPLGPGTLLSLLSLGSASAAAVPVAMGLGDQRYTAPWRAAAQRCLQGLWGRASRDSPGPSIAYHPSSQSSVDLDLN
How it was run: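 CHO-K1 cells stably expressing human TGR5, with IBMX and cAMP antibody, were exposed to half-log serially diluted compound for 1 h at room temperature. cAMP measured by enzyme-fragment complementation luminescence (XS+ kit) after overnight incubation; EC50 values reported.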

mouse TGR5 receptor = target: T2, mouse TGR5 receptor (Mus musculus, UniProt Q80SS6); test: Mouse TGR5 cAMP production assay (HTRF, Cisbio cAMP HiRange); format: cell-based; settings: HEK293-EBNA cells overexpressing mouse TGR5, HTRF cAMP HiRange; coded A-D
T2 construct: expressed in transfected cells; host or cells: HEK293-EBNA (293 c18, ATCC CRL10852), Hygromycin B selection
T2 sequence (Q80SS6 1-329): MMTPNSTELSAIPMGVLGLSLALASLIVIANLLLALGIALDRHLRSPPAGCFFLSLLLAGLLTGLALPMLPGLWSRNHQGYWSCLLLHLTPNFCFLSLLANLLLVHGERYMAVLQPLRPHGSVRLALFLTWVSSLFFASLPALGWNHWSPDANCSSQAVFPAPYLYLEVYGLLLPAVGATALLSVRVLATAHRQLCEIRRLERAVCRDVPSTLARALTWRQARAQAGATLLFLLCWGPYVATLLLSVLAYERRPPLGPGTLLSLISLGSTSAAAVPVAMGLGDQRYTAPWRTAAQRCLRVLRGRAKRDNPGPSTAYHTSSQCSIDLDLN
How it was run: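 cAMP read by HTRF competition after 1 h room-temperature compound exposure of mouse TGR5-overexpressing HEK293-EBNA cells. Cells were suspended in serum-free DMEM containing 500 μM IBMX; compounds ran as 12-point half-log dilutions in duplicate; EC50 derived.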

Row | EC50 (human TGR5 receptor) [nM] | EC50 (mouse TGR5 receptor) [nM] | Compound
1 | < 100 | < 100 | Cc1cnccc1-c1cccc(C(C)(C)N(CCCNC(=O)NCCS(=O)(=O)O)S(=O)(=O)c2cccc(Cl)c2C)c1 [Compound 29AA, 2-(3-(3-((3-Chloro-2-methyl-N-(2-(3-(3-methylpyridin-4-yl)phenyl)propan-2-yl)phenyl)sulfonamide)propyl)ureido)ethane-1-sulfonic acid]
2 | < 100 | < 100 | CCc1cnccc1-c1cccc(C2CN(C(=O)CS(=O)(=O)O)CCN2S(=O)(=O)c2cccc(Cl)c2C)c1 (stereo not shown) [Compound 49, 2-(4-((3-Chloro-2-methylphenyl)sulfonyl)-3-(3-(3-ethylpyridin-4-yl)phenyl)piperazin-1-yl)-2-oxoethanesulfonic acid]
3 | < 100 | < 100 | Cc1cnccc1-c1cccc([C@H](C)N(CCCC(=O)NCCNS(=O)(=O)NCC(=O)O)S(=O)(=O)c2cccc(Cl)c2C)c1 [Compound 38]
4 | < 100 | < 100 | Cc1cnccc1-c1cccc([C@H](C)N(CCCC(=O)NCCNS(=O)(=O)CC(=O)O)S(=O)(=O)c2cccc(Cl)c2C)c1 [Compound 26AA]
5 | < 100 | < 100 | Cc1cnccc1-c1cccc([C@H](C)N(CCCCC(=O)NCCS(=O)(=O)NCCC(=O)O)S(=O)(=O)c2ccccc2C(F)(F)F)c1 [Compound 20BM]
6 | < 100 | < 100 | CCc1cnccc1-c1cccc(C(C)(C)N(CCCC(=O)NCCS(=O)(=O)O)S(=O)(=O)c2cccc(Cl)c2C)c1 [Compound 20AC, 2-(4-(3-chloro-N-(2-(3-(3-ethylpyridin-4-yl)phenyl)propan-2-yl)-2-methylphenylsulfonamido)butanamido)ethanesulfonic acid]
7 | < 100 | < 100 | CCc1cnccc1-c1cccc([C@H](C)N(CCCC(=O)NCCCS(=O)(=O)O)S(=O)(=O)c2cccc(Cl)c2C)c1 [Compound 20AM, (S)-3-(4-(3-chloro-N-(1-(3-(3-ethylpyridin-4-yl)phenyl)ethyl)-2-methylphenylsulfonamido)butanamido)propane-1-sulfonic acid]
8 | < 100 | < 100 | CCc1cnccc1-c1cccc([C@H](C)N(CCCCNC(=O)NCS(=O)(=O)O)S(=O)(=O)c2ccccc2C(F)(F)F)c1 [Compound 28AH, (S)-(3-(4-(N-(1-(3-(3-ethylpyridin-4-yl)phenyl)ethyl)-2-(trifluoromethyl)phenylsulfonamido)butyl)ureido)methanesulfonic acid]
9 | < 100 | 100 to 999 | Cc1cnccc1-c1cccc(C(C)(C)N(CCCNC(=O)NCS(=O)(=O)O)S(=O)(=O)c2cccc(Cl)c2C)c1 [Compound 29, (3-(3-((3-Chloro-2-methyl-N-(2-(3-(3-methylpyridin-4-yl)phenyl)propan-2-yl)phenyl)sulfonamide)propyl)ureido) methanesulfonic acid]
10 | < 100 | < 100 | Cc1cnccc1-c1cccc(C(C)(C)N(CCCC(=O)NCC(=O)O)S(=O)(=O)c2cccc(Cl)c2C)c1 [Compound 21AB, 2-(4-(3-chloro-2-methyl-N-(2-(3-(3-methylpyridin-4-yl)phenyl)propan-2-yl)phenylsulfonamido)butanamido)acetic acid]
11 | < 100 | < 100 | Cc1cnccc1-c1cccc(C(C)(C)N(CCCC(=O)NCS(=O)(=O)O)S(=O)(=O)c2ccccc2C(F)(F)F)c1 [Compound 20AB]
12 | < 100 | < 100 | Cc1cnccc1-c1cccc([C@H](C)N(CCCCC(=O)NCCS(=O)(=O)O)S(=O)(=O)c2cccc(Cl)c2C)c1 [Compound 20AH, (S)-2-(5-(3-chloro-2-methyl-N-(1-(3-(3-methylpyridin-4-yl)phenyl)ethyl)phenylsulfonamido)pentanamido)ethanesulfonic acid]
13 | < 100 | < 100 | CCc1cnccc1-c1cccc(C2CN(C(=O)CCC(=O)O)CCN2S(=O)(=O)c2cccc(Cl)c2C)c1 (racemic) [Compound 46, (+/−) 4-(4-((3-Chloro-2-methylphenyl)sulfonyl)-3-(3-(3-ethylpyridin-4-yl)phenyl)piperazin-1-yl)-4-oxobutanoic acid]
14 | < 100 | < 100 | Cc1cnccc1-c1cccc([C@H](C)N(CCCCNC(=O)CS(=O)(=O)O)S(=O)(=O)c2ccccc2C(F)(F)F)c1 [Compound 31AA, (S)-2-((4-(N-(1-(3-(3-methylpyridin-4-yl)phenyl)ethyl)-2-(trifluoromethyl)phenylsulfonamido)butyl)amino)-2-oxoethanesulfonic acid]
15 | < 100 | 100 to 999 | Cc1cnccc1-c1cccc([C@H](C)N(CCCCNC(=O)NCCS(=O)(=O)NCC(=O)O)S(=O)(=O)c2ccccc2C(F)(F)F)c1 [Compound 28AA, (S)-2-(3-(4-(N-(1-(3-(3-methylpyridin-4-yl)phenyl)ethyl)-2-(trifluoromethyl)phenylsulfonamido)butyl)ureido)ethanesulfonamido acetic acid]
16 | < 100 | < 100 | CCc1cnccc1-c1cccc([C@H](C)N(CCCC(=O)NC[C@@H](O)[C@H](O)[C@@H](O)[C@@H](O)CO)S(=O)(=O)c2cccc(Cl)c2C)c1 [Compound 20AN, 4-(3-chloro-N-((S)-1-(3-(3-ethylpyridin-4-yl)phenyl)ethyl)-2-methylphenylsulfonamido)-N-((2R,3S,4S,5S)-2,3,4,5,6-pentahydroxyhexyl)butanamide]
17 | < 100 | < 100 | Cc1cnccc1-c1cccc([C@H](C)N(CCCCNC(=O)[C@@H](N)CS(=O)(=O)O)S(=O)(=O)c2ccccc2C(F)(F)F)c1 [Compound 31AC, (R)-2-amino-3-((4-(N-((S)-1-(3-(3-methylpyridin-4-yl)phenyl)ethyl)-2-(trifluoromethyl)phenylsulfonamido)butyl)amino)-3-oxopropane-1-sulfonic acid]
18 | < 100 | < 100 | CCc1cnccc1-c1cccc([C@H](C)N(CCCC(=O)NCCNS(N)(=O)=O)S(=O)(=O)c2cccc(Cl)c2C)c1 [Compound 37AA, (S)-4-(3-chloro-N-(1-(3-(3-ethylpyridin-4-yl)phenyl)ethyl)-2-methylphenylsulfonamido)-N-(2-(sulfamoylamino)ethyl)butanamide]
19 | < 100 | < 100 | CCc1cnccc1-c1cccc([C@H](C)N(CCCC(=O)NCCS(=O)(=O)NCC(=O)O)S(=O)(=O)c2cccc(Cl)c2C)c1 [Compound 21AT, (S) 2-(3-(4-(3-chloro-2-methyl-N-(1-(3-(3-ethylpyridin-4-yl)phenyl)ethyl)phenylsulfonamido)butanamido)ethylsulfonamido)acetic acid]
20 | < 100 | < 100 | CCc1cnccc1-c1cccc([C@H](C)N(CCCC(=O)NCCS(=O)(=O)O)S(=O)(=O)c2ccccc2C)c1 [Compound 20AR, (S)-2-(4-(N-(1-(3-(3-ethylpyridin-4-yl)phenyl)ethyl)-2-methylphenyl-sulfonamido)butanamido)ethane sulfonic acid]
21 | < 100 | < 100 | Cc1cnccc1-c1cccc(C(C)(C)N(CCCC(=O)NCCCS(=O)(=O)O)S(=O)(=O)c2cccc(Cl)c2C)c1 [Compound 20AD, 3-(4-(3-chloro-2-methyl-N-(2-(3-(3-methylpyridin-4-yl)phenyl)propan-2-yl)phenylsulfonamido)butanamido)propane-1-sulfonic acid]
22 | < 100 | < 100 | CCc1cnccc1-c1cccc([C@H](C)N(CCCC(=O)NCCS(=O)(=O)NCC(=O)O)S(=O)(=O)c2ccccc2C(F)(F)F)c1 [Compound 20BG]
23 | < 100 | < 100 | CCc1cnccc1-c1cccc([C@H](C)N(CCCC(=O)NCCS(=O)(=O)NCC(=O)O)S(=O)(=O)c2ccccc2C)c1 [Compound 20BU, (S)-2-(4-(2-methyl-N-(1-(3-(3-ethylpyridin-4-yl)phenyl)ethyl)phenylsulfonamido)butanamidoethylsulfonamido)acetate]
24 | < 100 | < 100 | CCc1cnccc1-c1cccc(C(C)(C)N(CCCC(=O)NCCS(=O)(=O)O)S(=O)(=O)c2ccccc2C(F)(F)F)c1 [Compound 20, 2-(4-(N-(2-(3-(3-ethylpyridin-4-yl)phenyl)propan-2-yl)-2-(trifluoromethyl)-phenylsulfonamido)butanamido)ethanesulfonic acid]
25 | < 100 | – | Cc1cnccc1-c1cccc(C(C)(C)NS(=O)(=O)c2cccc(C(F)(F)F)c2)c1 [Compound 5AA, N-(2-(3-(3-methylpyridin-4-yl)phenyl)propan-2-yl)-3-(trifluoromethyl)benzenesulfonamide]
